34 molecules from ChEMBL document CHEMBL1133459, “Adenosine kinase inhibitors. 1. Synthesis, enzyme inhibition, and antiseizure activity of 5-iodotubercidin analogues” (J Med Chem, 2000) can be followed below.

Usually IC50 stands for the concentration at which inhibition is half-maximal. For orientation: ED50 means the dose that gives a 50% effect, or the effect in half of the subjects. Low values mean an effect at a small dose, high ones a need for a large dose.

In one assay the target is Adenosine kinase (Homo sapiens, UniProt P55263). The experiment in a line: Inhibition of recombinant human adenosine kinase.
Adenosine kinase, sequence (P55263 whole entry): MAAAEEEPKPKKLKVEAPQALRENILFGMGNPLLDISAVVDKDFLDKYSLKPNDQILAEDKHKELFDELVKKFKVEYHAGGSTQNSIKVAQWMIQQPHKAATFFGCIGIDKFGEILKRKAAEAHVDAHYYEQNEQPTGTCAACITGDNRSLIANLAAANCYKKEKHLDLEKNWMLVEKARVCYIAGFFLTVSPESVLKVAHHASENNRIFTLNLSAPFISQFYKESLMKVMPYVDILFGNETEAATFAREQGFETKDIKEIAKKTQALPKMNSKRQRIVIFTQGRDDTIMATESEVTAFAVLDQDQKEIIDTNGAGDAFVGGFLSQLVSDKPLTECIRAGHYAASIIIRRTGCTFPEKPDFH
Regarding `[N-]=[N+]=NC[C@H]1O[C@@H](n2cc(Br)c3c(N)ncnc32)[C@H](O)[C@@H]1O`, the IC50 turned out to be 63 nM.

In the case of `CCCCSc1ncnc2c1c(I)cn2[C@@H]1O[C@H](C)[C@@H](O)[C@H]1O`, the IC50 is 1000 nM. Still for that read-out and setting: to `C=CCSc1ncnc2c1c(I)cn2[C@@H]1O[C@H](C)[C@@H](O)[C@H]1O` belongs 2800 nM; to `CC[C@H]1O[C@@H](n2cc(Br)c3c(N)ncnc32)[C@H](O)[C@@H]1O`, 500 nM; to `C[C@H]1O[C@@H](n2cc(Br)c3c(Cl)ncnc32)[C@H](O)[C@@H]1O`, 50 nM. With `C[C@H]1O[C@@H](n2cc(C#N)c3c(N)ncnc32)[C@H](O)[C@@H]1O`, the IC50 was determined as 310 nM. Same read-out and setting: to `Nc1ncnc2c1c(Br)cn2[C@@H]1O[C@H](CO)[C@@H](O)[C@H]1O` belongs 120 nM; to `C=C[C@H]1O[C@@H](n2cc(I)c3c(N)ncnc32)[C@H](O)[C@@H]1O`, 100 nM. On the same count and under the same terms, to `C[C@H]1O[C@@H](n2cc(I)c3c(=S)[nH]cnc32)[C@H](O)[C@@H]1O` belongs 6500 nM. The same measure, in the same setting: to `Nc1ncnc2c1ccn2[C@@H]1O[C@H](CO)[C@@H](O)[C@H]1O` [TUBERCIDIN] belongs 10000 nM.

`CSc1ncnc2c1c(I)cn2[C@@H]1O[C@H](C)[C@@H](O)[C@H]1O`: the IC50 was found to be 45 nM. Same read-out and setting: to `[N-]=[N+]=NC[C@H]1O[C@@H](n2cc(Br)c3c(Cl)ncnc32)[C@H](O)[C@@H]1O` belongs 100 nM; to `[N-]=[N+]=NC[C@H]1O[C@@H](n2cc(I)c3c(Cl)ncnc32)[C@H](O)[C@@H]1O`, 9 nM; to `N#Cc1cn([C@@H]2O[C@H](CO)[C@@H](O)[C@H]2O)c2ncnc(N)c12` [TOYOCAMYCIN], 310 nM. Still for that read-out and setting: to `CNc1ncnc2c1c(I)cn2[C@@H]1O[C@H](CO)[C@@H](O)[C@H]1O` belongs 1200 nM; to `C[C@H]1O[C@@H](n2cc(I)c3c(SCc4ccccc4)ncnc32)[C@H](O)[C@@H]1O`, 1000 nM.

`Nc1ncnc2c1c(Cl)cn2[C@@H]1O[C@H](CO)[C@@H](O)[C@H]1O`: the IC50 worked out at 210 nM.

As for `NC[C@H]1O[C@@H](n2ccc3c(N)ncnc32)[C@H](O)[C@@H]1O`, the IC50 stood at 13000 nM. The same measure, in the same setting: to `[N-]=[N+]=NC[C@H]1O[C@@H](n2cc(I)c3c(N)ncnc32)[C@H](O)[C@@H]1O` belongs 35 nM; to `OC[C@H]1O[C@@H](n2cc(I)c3c(Cl)ncnc32)[C@H](O)[C@@H]1O`, 24 nM. The same measure, in the same setting: to `CSc1cn([C@@H]2O[C@H](C)[C@@H](O)[C@H]2O)c2ncnc(N)c12` belongs 1350 nM. Still for that read-out and setting: to `CSc1cn([C@@H]2O[C@H](C)[C@@H](O)[C@H]2O)c2ncnc(Cl)c12` belongs 70 nM; to `Cc1cn([C@@H]2O[C@H](C)[C@@H](O)[C@H]2O)c2ncnc(Cl)c12`, 535 nM; to `CC[C@H]1O[C@@H](n2cc(I)c3c(N)ncnc32)[C@H](O)[C@@H]1O`, 60 nM.

As to `NC[C@H]1O[C@@H](n2cc(Br)c3c(N)ncnc32)[C@H](O)[C@@H]1O`, the IC50 is 0.2 nM.

In the case of `NC[C@H]1O[C@@H](n2cnc3c(N)ncnc32)[C@H](O)[C@@H]1O`, the 50% inhibitory concentration (IC50) was found to be 170 nM. Still for that read-out and setting: to `NC[C@H]1O[C@@H](n2cc(I)c3c(N)ncnc32)[C@H](O)[C@@H]1O` belongs 0.6 nM; to `C[C@H]1O[C@@H](n2cc(I)c3c(SCc4ccc([N+](=O)[O-])cc4)ncnc32)[C@H](O)[C@@H]1O`, 2000 nM. Consider `COC[C@H]1O[C@@H](n2cc(I)c3c(N)ncnc32)[C@H](O)[C@@H]1O`, for which the IC50 came out at 1200 nM. The same measure, in the same setting: to `NC[C@H]1O[C@@H](n2cc(I)c3c(Cl)ncnc32)[C@H](O)[C@@H]1O` belongs 0.1 nM; to `C[C@H]1O[C@@H](n2cc(I)c3c(Cl)ncnc32)[C@H](O)[C@@H]1O`, 3 nM.

The species entered for a further assay is Rattus norvegicus. The experiment in a line: Evaluated for antiseizure activity in rat maximal electric shock (MES) seizure model and represented as ED50. Type of assay: functional.
Regarding `C[C@H]1O[C@@H](n2cc(Br)c3c(N)ncnc32)[C@H](O)[C@@H]1O`, the median effective dose (ED50) is less than 3.7 mg/kg. For the molecule `Nc1ncnc2c1c(I)cn2[C@@H]1O[C@H](CO)[C@@H](O)[C@H]1O` [IODOTUBERCIDIN], the ED50 came to 6 mg/kg.

`C[C@H]1O[C@@H](n2cc(I)c3c(N)ncnc32)[C@H](O)[C@@H]1O` [5-IODO,5'-DEOXYTUBERCIDIN] showed an ED50 of 0.3 mg/kg. Same read-out and setting: to `NC[C@H]1O[C@@H](n2cc(Br)c3c(N)ncnc32)[C@H](O)[C@@H]1O` belongs 4.2 mg/kg.

`NC[C@H]1O[C@@H](n2cc(I)c3c(N)ncnc32)[C@H](O)[C@@H]1O` had an ED50 of 7.1 mg/kg.
